ChEMBL document CHEMBL1201862, “PubChem BioAssay data set” (2004)
One block for each compound: values may come before it. Activity calls are given as the source filed them. Unless noted, no cut-off for these calls is given here.

Assays:
[1] = cytotoxicity in LOX IMVI melanoma cells – cell-based, CellTiter-Glo ATP luminescence, 8/24/48 h, dry powder, HRAS target identification, dose response (AID 720602); assay type: functional
[2] = cytotoxicity in mouse C2C12 myoblasts – cell-based, CellTiter-Glo ATP luminescence, 8/24/48 h, dry powder, cytotoxicity control for HRAS target identification, dose response (AID 720603); assay type: functional
[3] = cytotoxicity in SR immunoblastic lymphoma cells – cell-based, CellTiter-Glo ATP luminescence, 8-48 h, dry powder, mechanism study for HRAS target identification, late-stage follow-up (AID 720608); assay type: functional
[4] = cytotoxicity in U-251 CNS tumor cells – cell-based, Alamar Blue fluorescence, 8/24/48 h, dry powder, HRAS target identification, dose response (AID 720605); assay type: functional
[5] = time-course viability loss in HT-29 cells – cell-based, CellTiter-Glo, multiple timepoints, dry powder, HRas target identification project, dose response (AID 720598); assay type: functional
[6] = cytotoxicity in CCRF-CEM lymphoblastic leukemia cells – cell-based, CellTiter-Glo ATP luminescence, 8/24/48 h, dry powder, HRAS target identification, dose response (AID 720607); assay type: functional
[7] = cytotoxicity in SNB-75 CNS cells – cell-based, CellTiter-Glo ATP luminescence, several timepoints, dry powder, mechanism study for HRAS target identification, late-stage follow-up (AID 720624); assay type: functional
[8] = reduced cellular PGC1a acetyl-lysine signal – cell-based, cherry-picked samples, dose response (AID 720514); assay type: functional;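 note: potency may reflect raised or lowered acetylation signal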
[9] = target: Disintegrin and metalloproteinase domain-containing protein 17 (Homo sapiens, UniProt P78536); assay: inhibition of ADAM17 substrate cleavage – biochemical, quenched FRET substrate, counter-screen for ADAM10 exosite inhibitor project, dose response (AID 743253)
[10] = NIH3T3 cell viability loss – ATP luminescence, mouse fibroblasts, counter-screen, dose response (AID 2010); assay type: functional, cell-based;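 note: cells exposed to compound for about 90 hours before reading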
[11] = Trypanosoma cruzi growth suppression in host cells – NIH3T3 host cells, beta-gal luminescence, confirmation (AID 2044); assay type: functional, cell-based;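 note: intracellular parasites grown in NIH/3T3 mouse fibroblasts as host cells; luminescent beta-galactosidase reporter signal from transgenic T. cruzi replicating inside host cells; inhibitors lower the luminescence signal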
[12] = potency of ADAM10 substrate cleavage blockers – biochemical, QFRET, dose response (AID 743254);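 note: ADAM10 enzyme with the DM2 quenched FRET peptide as substrate; EDANS fluorescence gain as the protease cuts the substrate; inhibitor potency against ADAM10 proteolytic activity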
[13] = target: RNA-editing ligase 1, mitochondrial (Trypanosoma brucei brucei, UniProt P86926); assay: inhibition of trypanosome RNA editing ligase – biochemical, fluorescence, Trypanosoma brucei, dose response (AID 1117295); assay type: functional
[14] = mouse embryonic fibroblast toxicity – cell-based, plate reader, dry powder, set 2, cytotoxicity control, dose response (AID 652280); assay type: functional; details: NIH3T3
[15] = target: Potassium channel subfamily K member 9 (Homo sapiens, UniProt Q9NPC2); assay: TASK3 channel blockers, electrophysiology – cell-based, automated electrophysiology, selectivity assay for TASK1 (KCNK3) inhibitor project, SAR follow-up (AID 652210); assay type: functional
[16] = target: Potassium channel subfamily K member 3 (Homo sapiens, UniProt O14649); assay: inhibition of human KCNK3 channel flux – CHO cells, FluxOR thallium flux, SAR follow-up (AID 652212); assay type: functional
[17] = IC50 of Artemis nuclease activity blockers – biochemical, fluorescence intensity, dose response (AID 720701); assay type: functional;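 note: Artemis endonuclease enzyme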
[18] = target: Metabotropic glutamate receptor 5 (Rattus norvegicus, UniProt P31424); assay: Identification of a glycine sulfonamide based non-MPEP site positive allosteric potentiator (PAM) of mGlu5 (calcium_assay).; assay type: functional
Sequence of Metabotropic glutamate receptor 5 (P31424 whole entry): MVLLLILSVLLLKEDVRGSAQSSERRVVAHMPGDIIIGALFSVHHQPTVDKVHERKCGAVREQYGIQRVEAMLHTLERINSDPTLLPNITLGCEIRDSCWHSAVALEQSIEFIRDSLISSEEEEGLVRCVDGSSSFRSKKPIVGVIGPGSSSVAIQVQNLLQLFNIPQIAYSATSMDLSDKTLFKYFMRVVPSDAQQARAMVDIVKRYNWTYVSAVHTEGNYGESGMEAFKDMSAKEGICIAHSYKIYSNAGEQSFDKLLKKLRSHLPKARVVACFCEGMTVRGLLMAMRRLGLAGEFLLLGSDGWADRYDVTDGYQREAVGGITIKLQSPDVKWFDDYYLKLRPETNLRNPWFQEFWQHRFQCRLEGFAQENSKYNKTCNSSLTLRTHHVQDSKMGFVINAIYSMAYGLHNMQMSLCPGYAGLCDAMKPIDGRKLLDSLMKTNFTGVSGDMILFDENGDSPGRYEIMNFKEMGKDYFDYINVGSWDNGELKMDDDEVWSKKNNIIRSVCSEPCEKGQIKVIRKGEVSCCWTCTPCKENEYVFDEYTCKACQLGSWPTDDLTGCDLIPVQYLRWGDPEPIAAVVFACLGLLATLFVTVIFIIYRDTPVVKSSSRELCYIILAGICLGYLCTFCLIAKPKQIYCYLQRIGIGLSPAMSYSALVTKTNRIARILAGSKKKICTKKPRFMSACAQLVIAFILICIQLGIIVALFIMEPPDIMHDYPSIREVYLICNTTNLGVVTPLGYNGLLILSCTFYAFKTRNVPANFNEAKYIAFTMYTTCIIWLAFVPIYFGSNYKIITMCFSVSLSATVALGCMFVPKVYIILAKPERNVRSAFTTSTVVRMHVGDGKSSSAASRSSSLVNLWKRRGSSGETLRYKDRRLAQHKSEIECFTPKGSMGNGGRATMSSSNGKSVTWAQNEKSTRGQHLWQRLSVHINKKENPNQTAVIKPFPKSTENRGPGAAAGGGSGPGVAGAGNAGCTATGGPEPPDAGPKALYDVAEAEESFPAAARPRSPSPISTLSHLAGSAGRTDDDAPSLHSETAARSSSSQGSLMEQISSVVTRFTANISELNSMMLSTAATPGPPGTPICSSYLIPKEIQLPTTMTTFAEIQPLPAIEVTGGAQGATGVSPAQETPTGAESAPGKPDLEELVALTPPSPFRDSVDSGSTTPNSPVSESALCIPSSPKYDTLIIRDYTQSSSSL

Sequence of Potassium channel subfamily K member 9 (Q9NPC2 whole entry): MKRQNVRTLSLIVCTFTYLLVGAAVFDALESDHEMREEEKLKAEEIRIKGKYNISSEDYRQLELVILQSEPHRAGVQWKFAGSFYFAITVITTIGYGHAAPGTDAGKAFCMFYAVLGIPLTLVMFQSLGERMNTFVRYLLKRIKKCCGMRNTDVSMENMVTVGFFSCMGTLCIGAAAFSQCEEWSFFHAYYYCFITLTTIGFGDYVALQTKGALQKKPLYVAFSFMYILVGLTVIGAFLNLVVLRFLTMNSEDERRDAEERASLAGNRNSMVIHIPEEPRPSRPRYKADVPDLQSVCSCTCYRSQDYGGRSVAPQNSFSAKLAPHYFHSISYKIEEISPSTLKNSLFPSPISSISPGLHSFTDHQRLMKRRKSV
Sequence of Disintegrin and metalloproteinase domain-containing protein 17 (P78536 whole entry, the tested form may be a part): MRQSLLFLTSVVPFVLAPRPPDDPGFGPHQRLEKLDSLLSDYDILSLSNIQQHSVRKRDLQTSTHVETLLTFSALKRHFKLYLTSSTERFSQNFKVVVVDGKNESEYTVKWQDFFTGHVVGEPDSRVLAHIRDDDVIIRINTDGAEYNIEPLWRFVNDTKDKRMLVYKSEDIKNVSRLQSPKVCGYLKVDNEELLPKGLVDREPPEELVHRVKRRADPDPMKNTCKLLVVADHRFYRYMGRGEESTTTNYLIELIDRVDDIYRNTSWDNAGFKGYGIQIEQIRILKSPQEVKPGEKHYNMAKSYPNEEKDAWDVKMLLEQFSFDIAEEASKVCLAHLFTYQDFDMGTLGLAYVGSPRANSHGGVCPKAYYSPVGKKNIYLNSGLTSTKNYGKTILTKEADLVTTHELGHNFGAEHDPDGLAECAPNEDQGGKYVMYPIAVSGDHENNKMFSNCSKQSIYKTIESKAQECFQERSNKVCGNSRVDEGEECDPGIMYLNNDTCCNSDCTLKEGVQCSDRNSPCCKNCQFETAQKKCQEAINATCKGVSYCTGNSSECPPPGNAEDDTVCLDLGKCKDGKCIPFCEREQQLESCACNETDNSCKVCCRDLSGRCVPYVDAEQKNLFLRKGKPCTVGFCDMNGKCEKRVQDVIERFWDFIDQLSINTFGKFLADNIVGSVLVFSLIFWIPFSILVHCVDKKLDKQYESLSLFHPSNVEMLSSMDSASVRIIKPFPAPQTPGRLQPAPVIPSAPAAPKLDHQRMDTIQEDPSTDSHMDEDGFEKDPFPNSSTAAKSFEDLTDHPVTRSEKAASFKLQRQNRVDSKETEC
Sequence of RNA-editing ligase 1, mitochondrial (P86926 whole entry): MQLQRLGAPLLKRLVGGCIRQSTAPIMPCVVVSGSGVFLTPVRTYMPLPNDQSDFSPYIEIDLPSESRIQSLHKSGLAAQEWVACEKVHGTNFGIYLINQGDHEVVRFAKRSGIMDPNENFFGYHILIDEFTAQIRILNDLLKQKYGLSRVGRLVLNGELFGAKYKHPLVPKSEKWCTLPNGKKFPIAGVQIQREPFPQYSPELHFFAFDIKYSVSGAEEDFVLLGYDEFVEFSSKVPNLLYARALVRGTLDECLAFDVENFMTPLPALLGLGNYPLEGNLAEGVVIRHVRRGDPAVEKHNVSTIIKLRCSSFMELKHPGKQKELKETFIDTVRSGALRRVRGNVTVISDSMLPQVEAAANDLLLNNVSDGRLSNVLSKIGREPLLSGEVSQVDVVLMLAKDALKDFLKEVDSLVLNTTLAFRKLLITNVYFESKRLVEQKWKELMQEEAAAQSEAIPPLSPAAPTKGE
Sequence of Potassium channel subfamily K member 3 (O14649 whole entry): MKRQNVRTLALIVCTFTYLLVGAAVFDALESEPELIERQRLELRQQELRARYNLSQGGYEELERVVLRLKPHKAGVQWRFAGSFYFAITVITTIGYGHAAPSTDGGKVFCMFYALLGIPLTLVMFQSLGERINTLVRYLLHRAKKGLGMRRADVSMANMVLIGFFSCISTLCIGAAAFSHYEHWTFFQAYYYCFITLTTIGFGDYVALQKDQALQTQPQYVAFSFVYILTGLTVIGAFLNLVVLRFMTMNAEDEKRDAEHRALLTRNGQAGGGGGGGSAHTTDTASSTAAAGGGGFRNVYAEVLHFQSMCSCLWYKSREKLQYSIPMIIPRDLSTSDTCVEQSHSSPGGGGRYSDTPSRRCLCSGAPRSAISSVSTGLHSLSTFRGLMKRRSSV

Compound: COC(=O)c1ccc([C@@H]2c3[nH]c4ccccc4c3C[C@@H](C(=O)OC)N2C(=O)CCl)cc1
AC50 [1]: 70.9 nM (active)
AC50 [2]: 233 nM (active)
AC50 [3]: 49.2 nM (active)
AC50 [4]: 34.2 nM (active)
AC50 [5]: 235 nM (active)
AC50 [6]: 105 nM (active)
AC50 [7]: 374 nM (active)

Compound: COC(=O)[C@@]1(Cc2ccccc2CN=[N+]=[N-])N=C(c2ccc(OCCCO)cc2)O[C@H]1c1ccccc1
AC50 [8]: 17.4 µM (active)

Compound: O=S(=O)(c1ccc(NC(=S)NCCC(c2ccccc2)c2ccccc2)cc1)N1CCOCC1
IC50 [9]: > 69.5 µM (inactive)
EC50 [10]: > 30 µM (not active)
EC50 [11]: 1.86 µM (active)
IC50 [12]: 13.2 µM (inactive)

Compound: Cc1cccc(-c2ccc([C@H]3[C@H](CO)N4CCCCN(CCC(F)(F)F)C[C@@H]34)cc2)c1
AC50 [14]: 3.67 µM (active)

Compound: N#Cc1nc(-c2ccc(OCc3ccc(Cl)cc3)cc2)oc1NCCCn1ccnc1
IC50 [17]: 4.52 µM (active)

Further lines, results first:

IC50 [13]: > 96.6 µM (inactive)
Compound: C[C@@H](NCCCn1cnc2c(OCc3ccccc3)ncnc21)c1cccc2ccccc12

IC50 [15]: 710 nM (active)
IC50 [16]: 109 nM (active)
Compound: COc1ccccc1C(=O)Nc1cc(NC(=O)c2ccccc2C(C)C)ccc1F

EC50 [18]: 10 µM (inconclusive)
Compound: CC(C(=O)Nc1ccccn1)N(c1ccccc1Cl)S(C)(=O)=O (stereo not drawn)
